From BindingDB's records for patent US20250026750 (Chia Tai Tianqing Pharmaceutical Group, 2025)

target: Serine/threonine-protein kinase ATR (Homo sapiens, UniProt Q13535); assay: In Vitro Inhibitory Activity Against ATR Kinase
Procedure: A 50 ng/μL ATR stock solution was diluted with a kinase buffer (50 mM HEPES, 10 mM MgCl2, 2 mM DTT, 1 mM EGTA, 0.01% Tween 20), and 6 μL of 1.67×, 0.0835 ng/μL working solution was added to each well (final concentration: 0.05 ng/μL). Different compounds dissolved in DMSO were added to wells using a nanoliter pipettor, such that the final concentrations of the compounds were 1000 nM-0.24 nM and the concentrations in positive wells were 100 nM-0.024 nM (4-fold gradient, 7 concentrations in total). Meanwhile, a blank control well (containing no enzyme) and a negative control well (containing enzyme, with the vehicle DMSO added) were set. After the enzyme had reacted with the compound or vehicle for 30 min, a 5×, 50 μM ATP (final concentration: 10 μM) prepared with the kinase buffer and a 5×, 0.5 μM substrate (final concentration: 0.1 μM, U Light-poly GT) were 1:1 mixed, and the mixture was added to wells at 4 μL/well. After the plate was sealed with a sealing film and the plate was incubated at room temperature for 2 h, 5 μL of 4×, 40 mM EDTA (final concentration: 10 mM) was added to each well. After 5 min of incubation at room temperature, 5 μL of a 4×, 8 nM assay reagent (final concentration: 2 nM, Ep-anti-phospho-tyrosine antibody) was added to each well. The plate was incubated at room temperature for 1 h. Plate reading was performed on a PE instrument (excitation: 320 or 340 nm; emission: 665 nm), and four-parameter fitting and IC50 calculations were performed.

Sequence of Serine/threonine-protein kinase ATR (Q13535 whole entry): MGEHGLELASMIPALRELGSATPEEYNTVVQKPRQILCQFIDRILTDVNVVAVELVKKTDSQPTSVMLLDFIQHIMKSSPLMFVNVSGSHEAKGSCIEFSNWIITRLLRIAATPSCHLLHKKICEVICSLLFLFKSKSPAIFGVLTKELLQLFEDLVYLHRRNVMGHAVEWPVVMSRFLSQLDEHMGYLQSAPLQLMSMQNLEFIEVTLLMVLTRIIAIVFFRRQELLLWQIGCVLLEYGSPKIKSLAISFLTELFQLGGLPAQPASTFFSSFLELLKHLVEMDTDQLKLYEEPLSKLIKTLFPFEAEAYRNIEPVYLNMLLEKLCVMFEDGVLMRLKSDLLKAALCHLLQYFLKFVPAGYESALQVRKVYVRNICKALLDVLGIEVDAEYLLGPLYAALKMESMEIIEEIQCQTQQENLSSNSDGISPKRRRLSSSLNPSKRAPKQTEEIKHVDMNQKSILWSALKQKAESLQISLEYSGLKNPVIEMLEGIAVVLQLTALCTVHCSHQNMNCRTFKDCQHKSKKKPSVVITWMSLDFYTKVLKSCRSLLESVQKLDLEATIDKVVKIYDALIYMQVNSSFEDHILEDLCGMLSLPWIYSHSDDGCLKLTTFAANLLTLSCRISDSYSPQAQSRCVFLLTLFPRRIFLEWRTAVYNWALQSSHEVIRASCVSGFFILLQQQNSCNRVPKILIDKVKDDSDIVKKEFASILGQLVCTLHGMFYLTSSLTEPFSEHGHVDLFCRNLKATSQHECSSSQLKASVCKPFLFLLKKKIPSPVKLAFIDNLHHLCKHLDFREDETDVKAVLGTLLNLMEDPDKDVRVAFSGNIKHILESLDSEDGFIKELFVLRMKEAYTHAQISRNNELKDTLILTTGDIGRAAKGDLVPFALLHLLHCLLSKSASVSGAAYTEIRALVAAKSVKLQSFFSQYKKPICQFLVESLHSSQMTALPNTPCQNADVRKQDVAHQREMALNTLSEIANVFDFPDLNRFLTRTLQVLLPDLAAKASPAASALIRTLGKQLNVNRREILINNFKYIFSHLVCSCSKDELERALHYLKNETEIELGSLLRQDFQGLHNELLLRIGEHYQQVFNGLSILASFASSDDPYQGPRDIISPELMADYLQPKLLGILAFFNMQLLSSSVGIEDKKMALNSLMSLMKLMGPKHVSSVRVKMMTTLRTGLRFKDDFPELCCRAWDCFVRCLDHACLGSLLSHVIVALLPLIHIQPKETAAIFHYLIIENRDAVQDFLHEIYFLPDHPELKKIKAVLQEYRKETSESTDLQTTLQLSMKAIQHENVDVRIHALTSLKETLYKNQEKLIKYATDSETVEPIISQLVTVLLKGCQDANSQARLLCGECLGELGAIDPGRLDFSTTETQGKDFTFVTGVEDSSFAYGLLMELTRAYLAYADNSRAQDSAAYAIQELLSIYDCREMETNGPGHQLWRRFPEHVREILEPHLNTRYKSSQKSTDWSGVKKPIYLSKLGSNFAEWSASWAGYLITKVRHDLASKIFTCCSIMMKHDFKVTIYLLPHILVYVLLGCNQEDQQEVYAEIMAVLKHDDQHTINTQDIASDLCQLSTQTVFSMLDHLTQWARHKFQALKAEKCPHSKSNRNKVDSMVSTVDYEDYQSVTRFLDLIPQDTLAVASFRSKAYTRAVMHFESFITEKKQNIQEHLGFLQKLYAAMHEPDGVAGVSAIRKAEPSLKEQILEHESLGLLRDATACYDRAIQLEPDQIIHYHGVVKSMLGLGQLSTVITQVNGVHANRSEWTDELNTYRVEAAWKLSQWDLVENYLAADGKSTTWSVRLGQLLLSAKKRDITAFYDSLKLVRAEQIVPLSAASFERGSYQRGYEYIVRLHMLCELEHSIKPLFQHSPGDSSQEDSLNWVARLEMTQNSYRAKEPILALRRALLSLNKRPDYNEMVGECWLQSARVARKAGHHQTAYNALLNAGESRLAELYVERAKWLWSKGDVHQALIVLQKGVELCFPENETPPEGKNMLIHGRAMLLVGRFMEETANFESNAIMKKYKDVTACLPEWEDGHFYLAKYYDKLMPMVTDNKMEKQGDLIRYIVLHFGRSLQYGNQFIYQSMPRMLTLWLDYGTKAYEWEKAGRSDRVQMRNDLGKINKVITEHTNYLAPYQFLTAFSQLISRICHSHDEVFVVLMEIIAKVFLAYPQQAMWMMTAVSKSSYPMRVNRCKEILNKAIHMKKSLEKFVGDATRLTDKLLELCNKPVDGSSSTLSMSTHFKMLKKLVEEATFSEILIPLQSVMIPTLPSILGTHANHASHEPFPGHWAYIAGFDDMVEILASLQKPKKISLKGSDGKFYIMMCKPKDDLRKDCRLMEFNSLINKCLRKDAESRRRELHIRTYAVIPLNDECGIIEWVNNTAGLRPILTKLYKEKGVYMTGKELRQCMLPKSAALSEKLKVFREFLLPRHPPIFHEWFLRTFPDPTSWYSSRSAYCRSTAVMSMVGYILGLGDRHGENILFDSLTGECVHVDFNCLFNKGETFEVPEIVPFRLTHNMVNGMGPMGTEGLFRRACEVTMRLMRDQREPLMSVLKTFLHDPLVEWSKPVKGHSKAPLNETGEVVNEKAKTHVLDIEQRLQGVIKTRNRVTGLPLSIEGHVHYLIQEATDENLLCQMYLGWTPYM

IC50, < 50 nM:
C[C@@H]1COCCN1c1cc(N=S(C)(C)=O)c2cnn(-c3ccn[nH]3)c2n1 [US20250026750, Compound 1]
C[C@@H]1COCCN1c1cc(N=S2(=O)CCC2)c2cnn(-c3ccn[nH]3)c2n1 [US20250026750, Compound 3]
C[C@@H]1COCCN1c1cc(N=S2(=O)CCCC2)c2cnn(-c3ccn[nH]3)c2n1 [US20250026750, Compound 4]
C[C@@H]1COCCN1c1cc(N=S2(=O)CCOCC2)c2cnn(-c3ccn[nH]3)c2n1 [US20250026750, Compound 6]
C[C@@H]1COCCN1c1cc(N=S(C)(=O)C(C)(C)C)c2cnn(-c3ccn[nH]3)c2n1 (some centres undefined) [US20250026750, Compound 17]
Cc1nn(-c2ccn[nH]2)c2nc(N3CCOC[C@H]3C)cc(N=S(C)(C)=O)c12 [US20250026750, Compound 20]
C[C@@H]1COCCN1c1cc(N=S(C)(C)=O)c2c(C(F)(F)F)nn(-c3ccn[nH]3)c2n1 [US20250026750, Compound 23]
C[C@@H]1COCCN1c1cc(N=S(C)(C)=O)c2c(CCC(F)(F)F)nn(-c3ccn[nH]3)c2n1 [US20250026750, Compound 24]
C[C@@H]1COCCN1c1cc(N=S(C)(C)=O)c2c(C(C)(C)C)nn(-c3cc[nH]n3)c2n1 [US20250026750, Compound 25]
